From ChEMBL document CHEMBL3627659, “Development of novel dipeptide-like rhodesain inhibitors containing the 3-bromoisoxazoline warhead in a constrained conformation” (Bioorg Med Chem, 2015) come the findings set out here.

For assay [1], the target named is Cathepsin B (Homo sapiens) (UniProt P07858). The assay can be described thus: Inhibition of human cathepsin B using Cbz-Phe-Arg-AMC at 100 uM measured by fluorescence spectrophotometry.
The target of the next assay is Rhodesain (Trypanosoma brucei rhodesiense, UniProt Q95PM0). The assay can be described thus: Inhibition of Trypanosoma brucei rhodesiense rhodesain using Cbz-Phe-Arg-7-amino-4-methylcoumarin assessed as substrate hydrolysis measured by fluorescence analysis for 10 mins.
Assay [2] concerns the target Rhodesain (Trypanosoma brucei rhodesiense) (UniProt Q95PM0). The assay can be described thus: Inhibition of Trypanosoma brucei rhodesiense rhodesain using Cbz-Phe-Arg-7-amino-4-methylcoumarin assessed as substrate hydrolysis at 100 uM measured by fluorescence analysis for 10 mins.
Assay [3] concerns the target Procathepsin L (Homo sapiens) (UniProt P07711). Put plainly: Inhibition of human cathepsin L using Cbz-Phe-Arg-AMC at 100 uM measured by fluorescence spectrophotometry.
For assay [4], the system named is Trypanosoma brucei brucei. The assay can be described thus: Antitrypanosomal activity against Trypanosoma brucei brucei TC 221 after 48 hrs by Alamar Blue assay. The class given is functional, organism-based. The settings on record: TC 221, 48 h.
A short description of assay [5]: Cytotoxicity against mouse J774.1 cells incubated for 24 to 48 hrs by Alamar Blue assay. The class given is cell-based.
Assay [6] deals with Trypanosoma brucei brucei. Put plainly: Antitrypanosomal activity against Trypanosoma brucei brucei TC 221 after 72 hrs by Alamar Blue assay. The class given is functional, organism-based. The note with it: TC 221, 72 h. (The colour change of resazurin is a common sign of viable cells or microbes.)

The source made the active and inactive calls. The calls are words filed in the database; no cut-off is given here. Where only a bound is given, the exact number is not on record here.

Sequence of Procathepsin L (Homo sapiens) (P07711 114-333 limits assumed): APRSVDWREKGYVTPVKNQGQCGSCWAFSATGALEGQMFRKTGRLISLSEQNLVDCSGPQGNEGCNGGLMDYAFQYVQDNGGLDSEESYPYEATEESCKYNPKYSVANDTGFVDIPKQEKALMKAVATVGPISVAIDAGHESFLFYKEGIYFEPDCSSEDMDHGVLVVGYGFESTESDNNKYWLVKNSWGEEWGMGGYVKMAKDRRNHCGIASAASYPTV
Sequence of Rhodesain (Q95PM0 whole entry): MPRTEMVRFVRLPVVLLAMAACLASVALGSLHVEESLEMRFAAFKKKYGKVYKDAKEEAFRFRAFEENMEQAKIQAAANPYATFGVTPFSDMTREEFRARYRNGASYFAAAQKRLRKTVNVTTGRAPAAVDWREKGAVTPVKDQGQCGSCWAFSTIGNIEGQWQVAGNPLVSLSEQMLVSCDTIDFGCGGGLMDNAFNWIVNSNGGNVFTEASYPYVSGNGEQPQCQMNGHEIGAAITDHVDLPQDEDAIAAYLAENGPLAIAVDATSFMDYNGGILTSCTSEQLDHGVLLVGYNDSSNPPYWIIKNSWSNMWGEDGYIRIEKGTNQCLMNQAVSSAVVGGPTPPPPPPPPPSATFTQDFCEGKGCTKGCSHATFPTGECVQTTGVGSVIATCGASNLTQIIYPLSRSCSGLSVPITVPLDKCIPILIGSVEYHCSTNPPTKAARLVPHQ
Sequence of Rhodesain (Trypanosoma brucei rhodesiense) (Q95PM0 1-450): as the sequence (Q95PM0 whole entry) above

Broadly, the inhibition is the relative decrease from the control value, in per cent. Usually Ki stands for the equilibrium dissociation constant of an inhibitor or competing ligand from its target. Turning to `C=CCOC(=O)N[C@@H](Cc1ccccc1)C(=O)N1C[C@@H]2ON=C(Br)[C@@H]2C1`, the inhibition result in assay [1] and in assay [3] was “inactive” throughout. In addition, the Ki at Rhodesain is 16.6 µM. Besides, the inhibition in assay [2] was greater than 40%.

In the case of `C=CCOC(=O)N[C@@H](Cc1ccccc1)C(=O)N1C[C@@H]2C(Br)=NO[C@@H]2C1`, the inhibition entry in assay [1] and in assay [3] was “inactive” each time. Further, at Rhodesain, the Ki was 15.1 µM. The inhibition in assay [2] was greater than 40%.

For `C=CCOC(=O)N[C@@H](CCc1ccccc1)C(=O)N1C[C@@H]2ON=C(Br)[C@@H]2C1`, the inhibition entry in assay [1] is “inactive”. Also, the inhibition constant Ki at Rhodesain amounted to 3.35 µM. Also, the inhibition in assay [2] was greater than 40%.

Turning to `C=CCOC(=O)N[C@@H](CCc1ccccc1)C(=O)N1C[C@@H]2C(Br)=NO[C@@H]2C1`, in assay [1], the inhibition entry was “inactive”. Moreover, the inhibitory constant (Ki) at Rhodesain worked out at 2.73 µM. The inhibition in assay [2] is greater than 40%.

For the compound `C=CCOC(=O)N[C@@H](CC(C)C)C(=O)N1C[C@@H]2ON=C(Br)[C@@H]2C1`, the inhibition result in assay [1] and in assay [3] was “inactive” in each case. The inhibition constant (Ki) at Rhodesain was 9.05 µM. For the same compound, the inhibition in assay [2] was greater than 40%.

With `C=CCOC(=O)N[C@@H](CC(C)C)C(=O)N1C[C@@H]2C(Br)=NO[C@@H]2C1`, the inhibition entry in assay [1] and in assay [3] was “inactive” throughout. The Ki on Rhodesain worked out at 8.52 µM. Besides, the inhibition in assay [2] is greater than 40%.

On to `O=C(N[C@@H](CCc1ccccc1)C(=O)N1C[C@@H]2C(Br)=NO[C@@H]2C1)OCc1ccc([N+](=O)[O-])cc1`, for which, in assay [1], the inhibition result was “inactive”. For the same compound, the inhibition constant (Ki) on Rhodesain turned out to be 6.81 µM. The inhibition in assay [2] was greater than 40%.

As for `O=C(N[C@@H](CCc1ccccc1)C(=O)N1C[C@@H]2C(Br)=NO[C@@H]2C1)OCC1CC1`, in assay [1], the inhibition result was “inactive”. In addition, the inhibition in assay [2] amounted to 15.7%.

Consider `C=CCOC(=O)N[C@@H](Cc1ccccc1)C(=O)N1CC2ON=C(Br)C2C1` (mixture of isomers), for which the inhibition entry in assay [1] and in assay [3] was “inactive” in each case. Besides, the inhibition constant Ki on Rhodesain was found to be 16.8 µM. Moreover, in assay [2], the inhibition is greater than 40%.

For orientation: IC50 means the point on the concentration scale where inhibition reaches its midpoint. A low value points to higher potency. Turning to `O=C(N[C@@H](Cc1ccccc1)C(=O)N1CC2ON=C(Br)C2C1)OCc1ccccc1` (mixture of isomers), the IC50 in assay [4] was 16.4 µM; in assay [5], greater than 100 µM; in assay [6] it was 18.2 µM. The inhibition result in assay [1] and in assay [3] was “inactive” in each case. In addition, at Rhodesain, the inhibition constant (Ki) is 8.41 µM. The inhibition in assay [2] is greater than 40%.

In the case of `CC(C)(C)OC(=O)N[C@@H](Cc1ccccc1)C(=O)N1CC2ON=C(Br)C2C1` (mixture of isomers), the inhibition result in assay [1] and in assay [3] was “inactive” each time. The Ki at Rhodesain worked out at 17.7 µM. Besides, the inhibition in assay [2] is greater than 40%.

With `C=CCOC(=O)N[C@@H](CCc1ccccc1)C(=O)N1CC2ON=C(Br)C2C1` (mixture of isomers), in assay [1], the inhibition entry was “inactive”. Besides, the Ki at Rhodesain was found to be 2.62 µM. Moreover, the inhibition in assay [2] is greater than 40%.

Take `C=CCOC(=O)N[C@@H](CC(C)C)C(=O)N1CC2ON=C(Br)C2C1` (mixture of isomers): the inhibition result in assay [1] and in assay [3] was “inactive” in each case. Further, on Rhodesain, the inhibitory constant (Ki) is 8.36 µM. Further, in assay [2], the inhibition is greater than 40%.

On to `CC(C)C[C@H](NC(=O)OC(C)(C)C)C(=O)N1CC2ON=C(Br)C2C1` (mixture of isomers), for which the inhibition result in assay [1] and in assay [3] was “inactive” each time. Also, on Rhodesain, the inhibition constant (Ki) is 13.6 µM. Also, the inhibition in assay [2] was greater than 40%.

Turning to `CC(C)(C)OC(=O)N[C@@H](CCc1ccccc1)C(=O)N1CC2ON=C(Br)C2C1` (mixture of isomers), in assay [1], the inhibition result is “inactive”. Besides, the inhibition in assay [2] is 5.8%.

Regarding `CC(C)C[C@H](NC(=O)OCc1ccccc1)C(=O)N1CC2ON=C(Br)C2C1` (mixture of isomers), the inhibition entry in assay [1] was “inactive”. The inhibition in assay [2] amounted to 8.3%.

For `CCCOC(=O)N[C@@H](CC(C)C)C(=O)N1CC2ON=C(Br)C2C1` (mixture of isomers), the inhibition result in assay [1] and in assay [3] was “inactive” throughout. Also, in assay [2], the inhibition was 11.3%.

For `CCCOC(=O)N[C@@H](CCc1ccccc1)C(=O)N1CC2ON=C(Br)C2C1` (mixture of isomers), the inhibition result in assay [1] is “inactive”. Besides, in assay [2], the inhibition was 15.3%.

`CCCOC(=O)N[C@@H](Cc1ccccc1)C(=O)N1CC2ON=C(Br)C2C1` (mixture of isomers): the inhibition entry in assay [1] and in assay [3] was “inactive” throughout. In addition, the inhibition in assay [2] is 13.1%.

In the case of `O=C(N[C@@H](CCc1ccccc1)C(=O)N1CC2ON=C(Br)C2C1)OCc1ccccc1` (mixture of isomers), the inhibition result in assay [1] and in assay [2] was “inactive” in each case.
